# Data from PMC5306082, “Physiologically based kinetic modeling of the bioactivation of myristicin” (Archives of Toxicology, 2016).
# Experiments:
# [1] = Microsomal conversion of myristicin, male rat liver microsomes; format: in vitro ADME
# Experimental: First, it was determined which organs are involved in the biotransformation of myristicin in rat and human. For this purpose, liver, kidney, lung, and small intestine microsomes from male Sprague–Dawley rat and pooled gender human were used. Incubations were performed by adding myristicin to incubation mixtures containing 1 mg/mL of the microsomal protein preparations and 3 mM NADPH in 0.2 M Tris–HCl (pH 7.4). After 1 min of pre-incubation at 37 °C, myristicin (final concentration, 1000 μM) was added from a 100 times concentrated stock solution in DMSO so that the final DMSO content was 1 % (v/v). Incubations were carried out for 30 min after which the reactions were terminated by adding 25 µl (0.25 times the incubation volume) of ice-cold ACN. Samples were centrifuged for 5 min at 13,000×g, and the supernatant was stored at −20 °C until UPLC analysis. As metabolism of myristicin was observed only in incubations with liver microsomes for male rats and pooled gender human, the determination of kinetic constants for the formation of microsomal metabolites was performed only for the liver fractions. Incubations to determine kinetic constants were performed following the conditions described above using final concentrations of myristicin from 25 to 1000 μM for rat and human liver. In all incubations, the final concentration of DMSO, in which myristicin was dissolved, was kept at 1 % (v/v). The formation of different microsomal metabolites was linear with time and microsomal protein concentration under the conditions described. Blank incubations were performed in the absence of the cofactor NADPH. All incubations were performed in triplicate.
# Secondary metabolism of the relevant 1′-hydroxy metabolite of myristicin was taken into account by determining the kinetic constants for its conversion in (a) glucuronidation, (b) sulfation, and (c) oxidation, again under conditions that allowed adequate definition of kinetic constants and with <10 % substrate conversion. Incubation samples were subjected to UPLC analysis that was performed as described previously (Punt et al. [2008]). Identification was achieved by comparing the UV spectra of the formed metabolites to the spectra of the synthesized 1′-hydroxymyristicin and 1′-oxomyristicin reference standards. Quantification of all formed metabolites was done by comparing the peak areas to those of calibration curves of the corresponding reference compounds, determined using UPLC with photodiode array detection (UPLC-PDA). The UPLC system was composed of a Waters (Waters, Milford, MA) Acquity solvent manager, sample manager, and photodiode array detector, equipped with Water Acquity UPLC BEH C18 column.
# The gradient for analysis of microsomal metabolites was performed with 100 % ACN and ultrapure water containing 0.1 % (v/v) TFA. The flow rate was 0.6 ml/min. The gradient started at 10 % ACN, increased to 50 % ACN over 4 min, increased to 80 % over 0.5 min, followed by decrease to 10 % ACN over 0.5 min, and finally kept at 10 % for 1 min.
# [2] = Glucuronidation of 1′-hydroxymyristicin, human liver S9; format: in vitro ADME; details: both sexes, human, pH 7.4; 1′-hydroxymyristicin to its glucuronide; S9, UDPGA; read-out: Km
# Experimental: The kinetic constants for the metabolic conversion of 1′-hydroxymyristicin to 1′-hydroxymyristicin glucuronide (HMG) by both male rat and human liver fractions were determined as described previously for the related 1′-hydroxyalkenylbenzenes (Punt et al. [2008]; van den Berg et al. [2012]; Punt et al. [2009]; Martati et al. [2011], [2012]; Al-Subeihi et al. [2011], [2012]). Briefly, incubations contained (final concentrations) 10 mM of UDPGA and 0.5 mg/ml of male Sprague–Dawley or pooled gender human S9 protein in 0.2 M Tris–HCl (pH 7.4) containing 10 mM of MgCl2. To overcome enzyme latency and to obtain maximal glucuronidation activity, incubations containing S9 were pretreated on ice with 0.025 mg/ml alamethicin added from a 200 times concentrated stock dissolved in methanol (Fisher et al. [2000]; Lin and Wong [2002]). After 15 min of alamethicin treatment, samples were pre-incubated at 37 °C for 1 min, and reactions were subsequently started by adding 1′-hydroxymyristicin at final concentrations of 10 to 1200 μM. 1′-Hydroxymyristicin was added from 100 times concentrated stock solutions in DMSO. The reaction mixtures were incubated for 30 and 180 min for rat and human, respectively, and terminated by adding 25 µl (0.25 times the incubation volume) of ice-cold ACN. Blank incubations were carried out in the absence of the cofactor UDPGA. Experiments were performed in triplicate. The longer incubation time in human samples was required due to the lower rate of glucuronidation. The formation of 1′-hydroxymyristicin glucuronide was linear with time and the S9 protein concentration under the experimental conditions described. All samples were centrifuged for 5 min at 16,000×g, and the supernatant was stored at −20 °C until ultra-performance liquid chromatography (UPLC) analysis.
# 1′-Hydroxymyristicin glucuronide was estimated based on the comparison of the peak area of the formed metabolite to the calibration curve of 1′-hydroxymyristicin at a wavelength of 210 nm. The flow rate was 0.6 ml/min. The gradient was made using a mixture of ACN and ultrapure water containing 0.1 % (v/v) TFA.
smiles,measurement,setting,value
"C=CC(O)c1cc(OC)c2c(c1)OCO2 (centres unmarked) [1′-Hydroxymyristicin, 1′-hydroxymyristicin]",Vmax,"[1]; formation of the metabolite from myristicin, NADPH, mean of three ± SD",0.86 ± 0.18 nmol min^−1 (mg microsomal or S9 protein)^−1
same,In vitro catalytic efficiency,"[1]; formation of the metabolite from myristicin, Vmax/Km × 1000",8.431 μl min^−1 (mg microsomal or S9 protein)^−1
same,"Scaled Vmax, in vivo","[1]; from myristicin, microsomal protein yield 35 mg/g liver",1.806 μmol/h/g tissue
same,In vivo catalytic efficiency,"[1]; from myristicin, scaled Vmax/Km",0.0177 ml/h/g tissue
same,"Km for formation from myristicin, fold lower in rat liver than in human liver incubations",[1]; rat vs human,twofold lower
same,"Vmax for formation from myristicin, fold higher in rat liver than in human liver incubations",[1]; rat vs human,fivefold higher
same,"catalytic efficiency for formation from myristicin, fold higher in male rat liver than in human liver","[1]; scaled catalytic efficiency, rat vs human",13 fold
same,Km at 180 min,[2],3.14 mM
